In patent publication US11000033B2, “Ketone or oxime compound, and herbicide” (NISSAN CHEMICAL CORPORATION, priority 2014, dated 2021):

Legend:
Cyperus difformis = assay: Test Example 3: herbicidal effect by foliage application, Wagner pot (symbol E); assay type: in vivo; details: application herbicide amount 320 g/ha
Summary of the method: (§1)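 Alluvial soil was flooded to a depth of 0.1–0.5 cm, seeded with the weeds and rice, and kept in a greenhouse at 25–30 °C. After 14 days of growth, the foliage received a small-sprayer application of emulsion diluted to the intended rate; injury was rated at 3 weeks.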

corn = assay: Test Example 4: effect on crop by soil treatment (symbol c); assay type: in vivo; details: application herbicide amount 320 g/ha
Summary of the method: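 Soil-treatment setup: crop and weed seeds were spot-sown into sterilized diluvial soil, then buried beneath approximately 1.5 cm of it, and the boxes were housed in a 25–30° C. greenhouse.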

[1] = tested on: Echinochloa crus-galli var. crus-galli; assay: Test Example 3: herbicidal effect by foliage application, Wagner pot (symbol H); assay type: in vivo; details: application herbicide amount 320 g/ha
Summary of the method: as §1

Monochoria vaginalis = assay: Test Example 2: herbicidal activity, application during weed generation in submerged conditions (symbol C); assay type: in vivo; details: Table 23; application herbicide amount 320 g/ha; grade 0-5 by criteria of Test Example 1
Summary of the method: (§2)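 Weeds emerging under flooded conditions were treated with compound formulated as an emulsion and diluted with water to the intended herbicide amount, poured onto the surface of 4 cm standing water. Seeds had been co-sown in alluvial soil; plants grew at 25° C. to 30° C. and were assessed after 3 weeks.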

rapeseed = assay: Test Example 5: effect on crop by foliage application, plastic box (symbol g); assay type: in vivo; details: 320 g/ha, 3 weeks after application
Summary of the method: (§3)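 Crop seed is sown alongside grass and broadleaf weed species in spots in sterilized diluvial soil, then covered to a depth of about 1.5 cm. Plants grow in a greenhouse kept at 25° C. to 30° C.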

Setaria viridis = assay: Test Example 4: herbicidal effect by soil treatment (symbol G); assay type: in vivo; details: application herbicide amount 320 g/ha
Summary of the method: (§4)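 Seeds were sown in sterilized diluvial soil, covered with about 1.5 cm of soil, and the soil surface was sprayed with a water-diluted emulsion of the compound at a predetermined rate. Plants grew in a greenhouse at 25° C. to 30° C.; effects were scored visually 3 weeks after application.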

Alopecurus myosuroides = assay: Test Example 4: herbicidal effect by soil treatment (symbol J); assay type: in vivo; details: application herbicide amount 320 g/ha
Summary of the method: as §4

Veronica persica = assay: Test Example 4: herbicidal effect by soil treatment (symbol R); assay type: in vivo; details: application herbicide amount 320 g/ha
Summary of the method: as §4

wheat = assay: Test Example 5: effect on crop by foliage application, plastic box (symbol e); assay type: in vivo; details: 320 g/ha, 3 weeks after application
Summary of the method: as §3

[2] = tested on: Echinochloa oryzacola Vasing.; assay: Test Example 2: herbicidal activity, application during weed generation in submerged conditions (symbol A); assay type: in vivo; details: Table 23; application herbicide amount 320 g/ha; grade 0-5 by criteria of Test Example 1
Summary of the method: as §2

Digitaria ciliaris = assay: Test Example 4: herbicidal effect by soil treatment (symbol F); assay type: in vivo; details: application herbicide amount 320 g/ha
Summary of the method: as §4

Abutilon theophrasti = assay: Test Example 4: herbicidal effect by soil treatment (symbol M); assay type: in vivo; details: application herbicide amount 320 g/ha
Summary of the method: as §4

Leptochloa chinensis = assay: Test Example 3: herbicidal effect by foliage application, Wagner pot (symbol D); assay type: in vivo; details: application herbicide amount 320 g/ha
Summary of the method: as §1

Stellaria media [3] = assay: Test Example 5: herbicidal effect by foliage application, plastic box (symbol P); assay type: in vivo; details: 320 g/ha, 3 weeks after application
Summary of the method: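 Greenhouse foliar test: seedlings at 14 days, grown 25° C. to 30° C. in sterilized diluvial soil; compound applied as an aqueous dilution of an emulsion; response read 3 weeks after spraying.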

Stellaria media [4] = assay: Test Example 4: herbicidal effect by soil treatment (symbol P); assay type: in vivo; details: application herbicide amount 320 g/ha
Summary of the method: as §4

## CON=C(C)CC1CC(O)=C(c2c(C)cc(C3CC3)cc2C)C1=O (stereo not drawn) [6-050]
Cyperus difformis
  herbicidal effect on E, grade 0-5: 5 (Herbicidal ratio of 90% or more (almost completely withered))
corn
  c: corn, effect on crop grade: 1 (Herbicidal ratio of 5% or higher and lower than 20%)
[1]
  herbicidal effect on H (Echinochloa crus-galli var. crus-galli), grade 0-5: 5 (Herbicidal ratio of 90% or more (almost completely withered))
Monochoria vaginalis
  Herbicidal effect grade, C: Monochoria vaginalis: 0 (Herbicidal ratio of 5% or lower (almost no effect))
rapeseed
  g: rapeseed, effect on crop grade: 5 (Herbicidal ratio of 90% or more (almost completely withered))
Setaria viridis
  G: Setaria viridis, herbicidal effect grade: 4 (Herbicidal ratio of 70% or higher and lower than 90%)
Alopecurus myosuroides
  J: Alopecurus myosuroides, herbicidal effect grade: 4 (Herbicidal ratio of 70% or higher and lower than 90%)
Veronica persica
  R: Veronica persica, herbicidal effect grade: 0 (Herbicidal ratio of 5% or lower (almost no effect))
wheat
  e: wheat, effect on crop grade: 0 (Herbicidal ratio of 5% or lower (almost no effect))
other
  melting point: 170 to 178 °C
[2]
  Herbicidal effect grade, A: Echinochloa oryzacola Vasing.: 3 (Herbicidal ratio of 40% or higher and lower than 70%)
Digitaria ciliaris
  F: Digitaria ciliaris, herbicidal effect grade: 5 (Herbicidal ratio of 90% or more (almost completely withered))
Abutilon theophrasti
  M: Abutilon theophrasti, herbicidal effect grade: 0 (Herbicidal ratio of 5% or lower (almost no effect))
Leptochloa chinensis
  herbicidal effect on D (Leptochloa chinensis), grade 0-5: 5 (Herbicidal ratio of 90% or more (almost completely withered))
Stellaria media [3]
  P: Stellaria media, herbicidal effect grade: 3 (Herbicidal ratio of 40% or higher and lower than 70%)
Stellaria media [4]
  P: Stellaria media, herbicidal effect grade: 3 (Herbicidal ratio of 40% or higher and lower than 70%)

## CON=C(C)CC1CC(O)=C(c2c(C)cc(OC)cc2C)C1=O (stereo not drawn) [6-055]
Cyperus difformis
  herbicidal effect on E, grade 0-5: 5 (Herbicidal ratio of 90% or more (almost completely withered))
corn
  c: corn, effect on crop grade: 5 (Herbicidal ratio of 90% or more (almost completely withered))
[1]
  herbicidal effect on H (Echinochloa crus-galli var. crus-galli), grade 0-5: 5 (Herbicidal ratio of 90% or more (almost completely withered))
Monochoria vaginalis
  Herbicidal effect grade, C: Monochoria vaginalis: 0 (Herbicidal ratio of 5% or lower (almost no effect))
rapeseed
  g: rapeseed, effect on crop (criteria of Test Example 1): 5 (Herbicidal ratio of 90% or more (almost completely withered))
Setaria viridis
  G: Setaria viridis, herbicidal effect grade: 5 (Herbicidal ratio of 90% or more (almost completely withered))
Alopecurus myosuroides
  J: Alopecurus myosuroides, herbicidal effect grade: 4 (Herbicidal ratio of 70% or higher and lower than 90%)
Veronica persica
  R: Veronica persica, herbicidal effect grade: 0 (Herbicidal ratio of 5% or lower (almost no effect))
wheat
  e: wheat, effect on crop (criteria of Test Example 1): 3 (Herbicidal ratio of 40% or higher and lower than 70%)
other
  melting point: 141 to 143 °C
[2]
  Herbicidal effect grade, A: Echinochloa oryzacola Vasing.: 5 (Herbicidal ratio of 90% or more (almost completely withered))
Digitaria ciliaris
  F: Digitaria ciliaris, herbicidal effect grade: 5 (Herbicidal ratio of 90% or more (almost completely withered))
Abutilon theophrasti
  M: Abutilon theophrasti, herbicidal effect grade: 3 (Herbicidal ratio of 40% or higher and lower than 70%)
Leptochloa chinensis
  herbicidal effect on D (Leptochloa chinensis), grade 0-5: 5 (Herbicidal ratio of 90% or more (almost completely withered))
Stellaria media [3]
  P: Stellaria media, herbicidal effect (criteria of Test Example 1): 4 (Herbicidal ratio of 70% or higher and lower than 90%)
Stellaria media [4]
  P: Stellaria media, herbicidal effect grade: 0 (Herbicidal ratio of 5% or lower (almost no effect))

## CON=C(C)CC1CC(O)=C(c2c(C)cc(Br)cc2OC)C1=O (stereo not drawn) [6-076, 2-(4-bromo-2-methoxy-6-methylphenyl)-3-hydroxy-5-{2-(methoxyimino)propyl}cyclopent-2-enone]
Cyperus difformis
  herbicidal effect on E, grade 0-5: 5 (Herbicidal ratio of 90% or more (almost completely withered))
corn
  c: corn, effect on crop grade: 5 (Herbicidal ratio of 90% or more (almost completely withered))
[1]
  herbicidal effect on H (Echinochloa crus-galli var. crus-galli), grade 0-5: 5 (Herbicidal ratio of 90% or more (almost completely withered))
Monochoria vaginalis
  Herbicidal effect grade, C: Monochoria vaginalis: 1 (Herbicidal ratio of 5% or higher and lower than 20%)
rapeseed
  g: rapeseed, effect on crop (criteria of Test Example 1): 4 (Herbicidal ratio of 70% or higher and lower than 90%)
Setaria viridis
  G: Setaria viridis, herbicidal effect grade: 5 (Herbicidal ratio of 90% or more (almost completely withered))
Alopecurus myosuroides
  J: Alopecurus myosuroides, herbicidal effect grade: 0 (Herbicidal ratio of 5% or lower (almost no effect))
Veronica persica
  R: Veronica persica, herbicidal effect grade: 0 (Herbicidal ratio of 5% or lower (almost no effect))
wheat
  e: wheat, effect on crop (criteria of Test Example 1): 5 (Herbicidal ratio of 90% or more (almost completely withered))
other
  melting point: 150 to 153 °C
[2]
  Herbicidal effect grade, A: Echinochloa oryzacola Vasing.: 5 (Herbicidal ratio of 90% or more (almost completely withered))
Digitaria ciliaris
  F: Digitaria ciliaris, herbicidal effect grade: 5 (Herbicidal ratio of 90% or more (almost completely withered))
Abutilon theophrasti
  M: Abutilon theophrasti, herbicidal effect grade: 5 (Herbicidal ratio of 90% or more (almost completely withered))
Leptochloa chinensis
  herbicidal effect on D (Leptochloa chinensis), grade 0-5: 5 (Herbicidal ratio of 90% or more (almost completely withered))
Stellaria media [3]
  P: Stellaria media, herbicidal effect (criteria of Test Example 1): 2 (Herbicidal ratio of 20% or higher and lower than 40%)
Stellaria media [4]
  P: Stellaria media, herbicidal effect grade: 0 (Herbicidal ratio of 5% or lower (almost no effect))

## CON=C(C)CC1CC(O)=C(c2c(F)cc(-c3ccccc3)cc2OC)C1=O (stereo not drawn) [6-107]
corn
  Effect on crop grade, c: corn: 0 (Herbicidal ratio of 5% or lower (almost no effect))
[1]
  herbicidal effect on H (Echinochloa crus-galli var. crus-galli), grade 0-5: 5 (Herbicidal ratio of 90% or more (almost completely withered))
Monochoria vaginalis
  Herbicidal effect grade, C: Monochoria vaginalis: 5 (Herbicidal ratio of 90% or more (almost completely withered))
rapeseed
  g: rapeseed, effect on crop (criteria of Test Example 1): 4 (Herbicidal ratio of 70% or higher and lower than 90%)
Setaria viridis
  Herbicidal effect grade, G: Setaria viridis: 5 (Herbicidal ratio of 90% or more (almost completely withered))
Alopecurus myosuroides
  Herbicidal effect grade, J: Alopecurus myosuroides: 5 (Herbicidal ratio of 90% or more (almost completely withered))
Veronica persica
  Herbicidal effect grade, R: Veronica persica: 4 (Herbicidal ratio of 70% or higher and lower than 90%)
wheat
  e: wheat, effect on crop (criteria of Test Example 1): 5 (Herbicidal ratio of 90% or more (almost completely withered))
other
  melting point: 175 to 177 °C
[2]
  Herbicidal effect grade, A: Echinochloa oryzacola Vasing.: 5 (Herbicidal ratio of 90% or more (almost completely withered))
Digitaria ciliaris
  Herbicidal effect grade, F: Digitaria ciliaris: 5 (Herbicidal ratio of 90% or more (almost completely withered))
Abutilon theophrasti
  Herbicidal effect grade, M: Abutilon theophrasti: 4 (Herbicidal ratio of 70% or higher and lower than 90%)
Leptochloa chinensis
  herbicidal effect on D (Leptochloa chinensis), grade 0-5: 5 (Herbicidal ratio of 90% or more (almost completely withered))
Stellaria media [3]
  P: Stellaria media, herbicidal effect (criteria of Test Example 1): 2 (Herbicidal ratio of 20% or higher and lower than 40%)
Stellaria media [4]
  Herbicidal effect grade, P: Stellaria media: 2 (Herbicidal ratio of 20% or higher and lower than 40%)

## CC(=O)C1CC(O)=C(c2c(C)cc(C)cc2C)C1=O (stereo not drawn) [8-001]
Cyperus difformis; Table 24
  E herbicidal effect grade: 0 (Herbicidal ratio of 5% or lower (almost no effect))
corn
  Effect on crop grade, c: corn: 0 (Herbicidal ratio of 5% or lower (almost no effect))
[1]; Table 24
  H (Echinochloa crus-galli var. crus-galli) herbicidal effect grade: 0 (Herbicidal ratio of 5% or lower (almost no effect))
Monochoria vaginalis
  Herbicidal effect grade, C: Monochoria vaginalis: 0 (Herbicidal ratio of 5% or lower (almost no effect))
rapeseed
  g: rapeseed, effect on crop grade: 0 (Herbicidal ratio of 5% or lower (almost no effect))
Setaria viridis
  Herbicidal effect grade, G: Setaria viridis: 0 (Herbicidal ratio of 5% or lower (almost no effect))
Alopecurus myosuroides
  Herbicidal effect grade, J: Alopecurus myosuroides: 0 (Herbicidal ratio of 5% or lower (almost no effect))
Veronica persica
  Herbicidal effect grade, R: Veronica persica: 0 (Herbicidal ratio of 5% or lower (almost no effect))
wheat
  e: wheat, effect on crop grade: 0 (Herbicidal ratio of 5% or lower (almost no effect))
[2]
  Herbicidal effect grade, A: Echinochloa oryzacola Vasing.: 0 (Herbicidal ratio of 5% or lower (almost no effect))
Digitaria ciliaris
  Herbicidal effect grade, F: Digitaria ciliaris: 0 (Herbicidal ratio of 5% or lower (almost no effect))
Abutilon theophrasti
  Herbicidal effect grade, M: Abutilon theophrasti: 0 (Herbicidal ratio of 5% or lower (almost no effect))
Leptochloa chinensis; Table 24
  D (Leptochloa chinensis) herbicidal effect grade: 0 (Herbicidal ratio of 5% or lower (almost no effect))
Stellaria media [3]
  P: Stellaria media, herbicidal effect grade: 0 (Herbicidal ratio of 5% or lower (almost no effect))
Stellaria media [4]
  Herbicidal effect grade, P: Stellaria media: 0 (Herbicidal ratio of 5% or lower (almost no effect))
